In patent publication US20120004281A1, “RNA Interference Mediated Inhibition of the Nerve Growth Factor Beta Chain (NGFB) Gene Expression Using Short Interfering Nucleic Acid (siNA)” (Merck Sharp & Dohme Corp, priority 2009, published 2012):
[invAb] = inverted abasic unit; m = 2'-O-methyl; r = 2'-OH (RNA); f = 2'-fluoro

System: NGFβ mRNA
Assay: NGFβ mRNA knock-down in Calu-1 cells (RNAiMax transfection, Taqman RT-PCR)
Assay type: cell-based, human
Conditions: human Calu-1 cells, 10 nM siNA, 24 hrs post-transfection, relative to non-targeting control, normalized to GAPDH
Experimental: Calu-1 (human; ATCC cat# HTB-54): Cells were cultured at 37° C. in the presence of 5% CO2 and grown in McCoy's 5a medium supplemented with fetal bovine serum at a final concentration of 10% and 100 μg/mL of streptomycin and 100 U/mL penicillin.
All transfections were performed using RNAiMax (Invitrogen Cat# 13778-150) as per the manufacturer's instructions.
Cells were plated in all wells of a tissue-culture treated, 96-well plate at a final count of 5,000 cells/well in […], of appropriate culture media. Cells were cultured for 24 hours after plating at 37° C. in the presence of 5% CO2.
After 24 hours, complexes containing siNA and RNAiMax were created as follows: A solution of RNAiMax diluted 33-fold in OPTI-MEM was prepared. In parallel, solutions of the siNAs for testing were prepared to a final concentration of 120 nM in OPTI-MEM. After incubation of RNAiMax/OPTI-MEM solution at room temperature for 5 min, an equal volume of the siRNA solution and the RNAiMax solution were added together for each of the siNAs.
This solution was incubated at room temperature for 20 minutes. After incubation, 20 uL of the solution was added to each of the relevant wells.
The final concentration of siNA in each well was 10 nM and the final volume of RNAiMax in each well was 0.3u1.
The time of incubation with the RNAiMax-siNA complexes was 24 hours, unless otherwise indicated. There was no change in media between the transfection and harvesting of the cells unless otherwise indicated.
Dose response curves were carried out in a similar fashion in 96-well plates, while maintaining a constant amount of RNAiMax in each transfection.
RNA was extracted from a 96-well plate using the TaqMan® Gene Expression Cells-to-CT™ Kit (Cat# 4399002) with a modified protocol. Briefly, a 60 uL (1 plate) or 110 uL (2 plates) of the Lysis Solution with DNase I was dispensed into each well of the Lysis Buffer Plate (twin.tec full skirt plate). The lysis buffer and stop plates were stored at 4° C. until the cells were washed.
The plate was spun at 1100 rpm for 5 minutes. The culture medium was aspirated and discarded from the wells of the culture plate. The lysis was performed automatically using a BioMek FX instrument and method. After the Biomek method was completed, the lysis plate was incubated for 2 min. at room temperature. The lysis plate can be stored for 2 hours at 4° C., or at −20° C. or −80° C. for two months.
Each well of the reverse transcription plate required 10 uL of 2× reverse transcriptase Buffer, luL of 20× reverse transcription enzyme and 2 uL of nuclease-free water. The reverse transcription master mix was prepared by mixing 2× reverse transcription buffer, 20× reverse transcription enzyme mix, and nuclease-free water. 13 uL of the reverse transcription master mix was dispensed into each well of the reverse transcription plate (semi-skirted). A separate reverse transcription plate was prepared for each cell plate. The plate was loaded onto a Biomek NX or Biomek FX Dual-96 and the Biomek method was run. The program is programmed to automatically added 7 uL of lysate from the cell lysis procedure described above into each well of the reverse transcription plate. The plate is sealed and spun on a centrifuge (1000 rpm for 30 seconds) to settle the contents to the bottom of the reverse transcription plate. The plate is placed in a thermocycler at 37° C. for 60 min, 95° C. for 5 min, and 4° C. until the plate is removed from the thermocycler. Upon removal, if not used immediately, the plate was frozen at −20° C.
A series of probes and primers were used to detect the various mRNA transcripts of the genes of NGFβ, BDNF and GAPDH in human cell lines. All the Taqman probes and primers for the experiments here-in described were supplied as pre-validated sets by Applied Biosystems, Inc. (see Table 3). The assays were performed on an ABI 7900 instrument, according to the manufacturer's instructions. […]

Substance | % KD in CaLu-1 Cells [%]
25421-DC: siNA duplex, NGFβ target site 675; sense B uAuucAAAcAGuAcuuuuu TTB (SEQ ID NO: 67), antisense AAAAAGuAcUGuuuGAAuAUU (SEQ ID NO: 68) (sense UAUUCAAACAGUACUUUUUTT; antisense AAAAAGUACUGUUUGAAUAUU; sense: DNA at AGT, 2'-fluoro at CU, [invAb] at 5' end, 3' end, backbone not given here; antisense: sugars from the 5' end rrrmmmfmfmmfffmmmfmmm, backbone not given here) | 56
25414-DC: siNA duplex, NGFβ target site 615; sense B ccAcAGAcAucAAGGGcAA TTB (SEQ ID NO: 53), antisense UUGcccuuGAuGucuGuGGUU (SEQ ID NO: 54) (sense CCACAGACAUCAAGGGCAATT; antisense UUGCCCUUGAUGUCUGUGGUU; sense: DNA at AGT, 2'-fluoro at CU, [invAb] at 5' end, 3' end, backbone not given here; antisense: sugars from the 5' end rrrfffffmmfmfffmfmmmm, backbone not given here) | 61
25419-DC: siNA duplex, NGFβ target site 648; sense B uGGGAGAGGuGAAcAuuAA TTB (SEQ ID NO: 63), antisense UUAAuGuucAccucucccAUU (SEQ ID NO: 64) (sense UGGGAGAGGUGAACAUUAATT; antisense UUAAUGUUCACCUCUCCCAUU; sense: DNA at AGT, 2'-fluoro at CU, [invAb] at 5' end, 3' end, backbone not given here; antisense: sugars from the 5' end rrrmfmfffmffffffffmmm, backbone not given here) | 25
25408-DC: siNA duplex, NGFβ target site 653; sense B GAGGuGAAcAuuAAcAAcA TTB (SEQ ID NO: 41), antisense UGUuGuuAAuGuucAccucUU (SEQ ID NO: 42) (sense GAGGUGAACAUUAACAACATT; antisense UGUUGUUAAUGUUCACCUCUU; sense: DNA at AGT, 2'-fluoro at CU, [invAb] at 5' end, 3' end, backbone not given here; antisense: sugars from the 5' end rrrfmffmmfmfffmffffmm, backbone not given here) | 26
25429-DC: siNA duplex, NGFβ target site 469; sense B ucAGGAucuGGAcuucGAG TTB (SEQ ID NO: 83), antisense CUCGAAGuccAGAuccuGAUU (SEQ ID NO: 84) (sense UCAGGAUCUGGACUUCGAGTT; antisense CUCGAAGUCCAGAUCCUGAUU; sense: DNA at AGT, 2'-fluoro at CU, [invAb] at 5' end, 3' end, backbone not given here; antisense: sugars from the 5' end rrrmmmmfffmmmffffmmmm, backbone not given here) | 1
25403-DC: siNA duplex, NGFβ target site 958; sense B ccuGuAAAuuAuuuuAAAu TTB (SEQ ID NO: 31), antisense AUUuAAAAuAAuuuAcAGGUU (SEQ ID NO: 32) (sense CCUGUAAAUUAUUUUAAAUTT; antisense AUUUAAAAUAAUUUACAGGUU; sense: DNA at AGT, 2'-fluoro at CU, [invAb] at 5' end, 3' end, backbone not given here; antisense: sugars from the 5' end rrrfmmmmfmmfffmfmmmmm, backbone not given here) | 60
25423-DC: siNA duplex, NGFβ target site 519; sense B AcAGGAGcAAGcGGucAuc TTB (SEQ ID NO: 71), antisense GAUGAccGcuuGcuccuGuUU (SEQ ID NO: 72) (sense ACAGGAGCAAGCGGUCAUCTT; antisense GAUGACCGCUUGCUCCUGUUU; sense: DNA at AGT, 2'-fluoro at CU, [invAb] at 5' end, 3' end, backbone not given here; antisense: sugars from the 5' end rrrmmffmfffmfffffmfmm, backbone not given here) | 40
25420-DC: siNA duplex, NGFβ target site 510; sense B AcAGGAcucAcAGGAGcAA TTB (SEQ ID NO: 65), antisense UUGcuccuGuGAGuccuGuUU (SEQ ID NO: 66) (sense ACAGGACUCACAGGAGCAATT; antisense UUGCUCCUGUGAGUCCUGUUU; sense: DNA at AGT, 2'-fluoro at CU, [invAb] at 5' end, 3' end, backbone not given here; antisense: sugars from the 5' end rrrfffffmfmmmffffmfmm, backbone not given here) | 44
25427-DC: siNA duplex, NGFβ target site 516; sense B cucAcAGGAGcAAGcGGuc TTB (SEQ ID NO: 79), antisense GACcGcuuGcuccuGuGAGUU (SEQ ID NO: 80) (sense CUCACAGGAGCAAGCGGUCTT; antisense GACCGCUUGCUCCUGUGAGUU; sense: DNA at AGT, 2'-fluoro at CU, [invAb] at 5' end, 3' end, backbone not given here; antisense: sugars from the 5' end rrrfmfffmfffffmfmmmmm, backbone not given here) | 6
25410-DC: siNA duplex, NGFβ target site 451; sense B ccGuGAAGcuGcAGAcAcu TTB (SEQ ID NO: 45), antisense AGUGucuGcAGcuucAcGGUU (SEQ ID NO: 46) (sense CCGUGAAGCUGCAGACACUTT; antisense AGUGUCUGCAGCUUCACGGUU; sense: DNA at AGT, 2'-fluoro at CU, [invAb] at 5' end, 3' end, backbone not given here; antisense: sugars from the 5' end rrrmfffmfmmffffmfmmmm, backbone not given here) | 70
